Assays:
[1] = tested on: Bacteroides melaninogenicus; test: Minimal inhibitory concentration (MIC) by broth dilution and checkerboard titration of combinations; format: cell-based
Method: (§1) The minimal inhibitory concentration (MIC) of the test compound is the minimum concentration of compound required to inhibit growth of the test microorganism. The MIC is determined by serially diluting the test solution through tubes of sterile broth. The tubes are inoculated and incubated at 37°C for 48 hours. At the end of the incubation time, growth is checked macroscopically. The lowest concentration of test compound to inhibit growth is the MIC. This technique is used to assess antimicrobial activity of combinations. The checkerboard is the pattern found by multiple combinations of two agents in concentrations equal to, above and below their minimal inhibitory concentration for the microorganism tested against. The checkerboard consists of columns which contain the same amount of one agent which is diluted along the x-axis and rows which each contain the same amount of the second agent diluted along the y-axis. Thus each tube is a unique combination of the two agents. […] A method for illustrating the effect of the combination of the two agents is obtained by plotting the MIC's of each agent alone and the MIC's for these agents in combination. Antimicrobial synergy is indicated if the MIC's for the agents in combination are lower than the MIC's for the agents alone.

Streptococcus mutans = test: as above; format: cell-based
Method: as §1

[2] = B. melaninogenicus, agent alone (other agent 0), Table VII
[3] = S. mutans, agent alone (other agent 0), Table VII
[4] = B. melaninogenicus, agent alone (other agent 0), second table of Example XI, comparative
[5] = S. mutans, agent alone (other agent 0), second table of Example XI, comparative
[6] = B. melaninogenicus, agent alone (other agent 0), Table IX
[7] = S. mutans, agent alone (other agent 0), Table IX
[8] = B. melaninogenicus, agent alone (other agent 0), Table XI, comparative
[9] = S. mutans, agent alone (other agent 0), Table XI, comparative
[10] = B. melaninogenicus, agent alone (other agent 0), Table X
[11] = S. mutans, agent alone (other agent 0), Table X

CCCCCCCCCCCCOCC(O)CO (racemic) [1-0-dodecyl-rac-glycerol, reference compound]
Minimum Inhibitory Concentration [1, 2]: 10 miligrams/liter
Minimum Inhibitory Concentration ([1]; B. melaninogenicus, in combination with 4 miligrams/liter morpholinoamino alcohol HCl): 6 miligrams/liter
Minimum Inhibitory Concentration ([1]; B. melaninogenicus, in combination with 20 miligrams/liter morpholinoamino alcohol HCl): 2 miligrams/liter
Minimum Inhibitory Concentration (Streptococcus mutans; [3]): 10 miligrams/liter
Minimum Inhibitory Concentration (Streptococcus mutans; S. mutans, in combination with 4 miligrams/liter morpholinoamino alcohol HCl): 6 miligrams/liter
Minimum Inhibitory Concentration (Streptococcus mutans; S. mutans, in combination with 100 miligrams/liter morpholinoamino alcohol HCl): 2 miligrams/liter

OCc1ccc(Cl)cc1Cl [2,4-dichloro-alcohol, 2,4-dichlorobenzyl alcohol, reference compound]
Minimum Inhibitory Concentration [1, 4]: 100 milligrams/liter
Minimum Inhibitory Concentration ([1]; B. melaninogenicus, in combination with 50 milligrams/liter morpholinoamino alcohol HCl, the 12th table): 100 milligrams/liter
Minimum Inhibitory Concentration ([1]; B. melaninogenicus, in combination with 100 milligrams/liter morpholinoamino alcohol HCl, the 12th table): 100 milligrams/liter
Minimum Inhibitory Concentration (Streptococcus mutans; [5]): 50 milligrams/liter
Minimum Inhibitory Concentration (Streptococcus mutans; S. mutans, in combination with 50 milligrams/liter morpholinoamino alcohol HCl, the 12th table): 50 milligrams/liter
Minimum Inhibitory Concentration (Streptococcus mutans; S. mutans, in combination with 100 milligrams/liter morpholinoamino alcohol HCl, the 12th table): 50 milligrams/liter

CCCCCCCCCCCC[N+](C)(C)CCOc1ccccc1 [domiphen bromide, reference compound]
Minimum Inhibitory Concentration [1, 6]: 50 milligrams/liter
Minimum Inhibitory Concentration ([1]; B. melaninogenicus, in combination with 50 milligrams/liter morpholinoamino alcohol HCl, Table IX): 12.5 milligrams/liter
Minimum Inhibitory Concentration ([1]; B. melaninogenicus, in combination with 100 milligrams/liter morpholinoamino alcohol HCl, Table IX): 6.25 milligrams/liter
Minimum Inhibitory Concentration (Streptococcus mutans; [7]): 1.0 milligrams/liter
Minimum Inhibitory Concentration (Streptococcus mutans; S. mutans, in combination with 50 milligrams/liter morpholinoamino alcohol HCl, Table IX): 1.0 milligrams/liter
Minimum Inhibitory Concentration (Streptococcus mutans; S. mutans, in combination with 100 milligrams/liter morpholinoamino alcohol HCl, Table IX): 0.5 milligrams/liter

CCCCCc1ccc(C)cc1O [amyl-m-cresol, reference compound]
Minimum Inhibitory Concentration [1, 8]: 10 milligrams/liter
Minimum Inhibitory Concentration ([1]; B. melaninogenicus, in combination with 50 milligrams/liter morpholinoamino alcohol HCl, Table XI): 10 milligrams/liter
Minimum Inhibitory Concentration ([1]; B. melaninogenicus, in combination with 100 milligrams/liter morpholinoamino alcohol HCl, Table XI): 2.5 milligrams/liter
Minimum Inhibitory Concentration (Streptococcus mutans; [9]): 10 milligrams/liter
Minimum Inhibitory Concentration (Streptococcus mutans; S. mutans, in combination with 50 milligrams/liter morpholinoamino alcohol HCl, Table XI): 10 milligrams/liter
Minimum Inhibitory Concentration (Streptococcus mutans; S. mutans, in combination with 100 milligrams/liter morpholinoamino alcohol HCl, Table XI): 10 milligrams/liter

CCCC(CCC)CCCC1COCCN1CCO.Cl (stereo not drawn) [3-(4-propylheptyl)-4-(2-hydroxyethyl) morpholine hydrochloride]
Minimum Inhibitory Concentration ([1]; B. melaninogenicus (J18M2), agent alone (other agent 0), Table VIII): 200 milligrams/liter
Minimum Inhibitory Concentration ([1]; B. melaninogenicus (J18M2), in combination with 0.003 milligrams/liter cetyl pyridinium chloride): 100 milligrams/liter
Minimum Inhibitory Concentration ([1]; B. melaninogenicus (J18M2), in combination with 0.006 milligrams/liter cetyl pyridinium chloride): 50 milligrams/liter
Minimum Inhibitory Concentration [1, 6]: 200 milligrams/liter
Minimum Inhibitory Concentration [1, 2]: 200 miligrams/liter
Minimum Inhibitory Concentration [1, 10]: 200 milligrams/liter
Minimum Inhibitory Concentration [1, 8]: 200 milligrams/liter
Minimum Inhibitory Concentration [1, 4]: 200 milligrams/liter
Minimum Inhibitory Concentration ([1]; B. melaninogenicus, in combination with 0.125 milligrams/liter hexitidine): 100 milligrams/liter
Minimum Inhibitory Concentration ([1]; B. melaninogenicus, in combination with 0.25 milligrams/liter hexitidine): 50 milligrams/liter
Minimum Inhibitory Concentration ([1]; B. melaninogenicus, in combination with 2 miligrams/liter 1-0-dodecyl-rac-glycerol): 20 miligrams/liter
Minimum Inhibitory Concentration ([1]; B. melaninogenicus, in combination with 2.5 milligrams/liter amyl-m-cresol): 100 milligrams/liter
Minimum Inhibitory Concentration ([1]; B. melaninogenicus, in combination with 6 miligrams/liter 1-0-dodecyl-rac-glycerol): 4 miligrams/liter
Minimum Inhibitory Concentration ([1]; B. melaninogenicus, in combination with 6.25 milligrams/liter domiphen bromide): 100 milligrams/liter
Minimum Inhibitory Concentration ([1]; B. melaninogenicus, in combination with 10 milligrams/liter amyl-m-cresol): 50 milligrams/liter
Minimum Inhibitory Concentration ([1]; B. melaninogenicus, in combination with 12.5 milligrams/liter domiphen bromide): 50 milligrams/liter
Minimum Inhibitory Concentration ([1]; B. melaninogenicus, in combination with 100 milligrams/liter 2, 4-dichloro-alcohol (row with 50 morpholinoamino alcohol HCl)): 50 milligrams/liter
Minimum Inhibitory Concentration ([1]; B. melaninogenicus, in combination with 100 milligrams/liter 2, 4-dichloro-alcohol (row with 100 morpholinoamino alcohol HCl)): 100 milligrams/liter
Minimum Inhibitory Concentration ([1]; B. melaninogenicus, in the absence of the dodecyl glycerol): 200 milligrams per liter
Minimum Inhibitory Concentration (Streptococcus mutans; S. mutans (ATCC 2517S), agent alone (other agent 0), Table VIII): 200 milligrams/liter
Minimum Inhibitory Concentration (Streptococcus mutans; [7]): 200 milligrams/liter
Minimum Inhibitory Concentration (Streptococcus mutans; [3]): 200 miligrams/liter
Minimum Inhibitory Concentration (Streptococcus mutans; [11]): 200 milligrams/liter
Minimum Inhibitory Concentration (Streptococcus mutans; [9]): 200 milligrams/liter
Minimum Inhibitory Concentration (Streptococcus mutans; [5]): 200 milligrams/liter
Minimum Inhibitory Concentration (Streptococcus mutans; S. mutans, in combination with 0.25 milligrams/liter hexitidine (row with 50 morpholinoamino alcohol HCl)): 50 milligrams/liter
Minimum Inhibitory Concentration (Streptococcus mutans; S. mutans, in combination with 0.25 milligrams/liter hexitidine (row with 100 morpholinoamino alcohol HCl)): 100 milligrams/liter
Minimum Inhibitory Concentration (Streptococcus mutans; S. mutans, in combination with 0.5 milligrams/liter domiphen bromide): 100 milligrams/liter
Minimum Inhibitory Concentration (Streptococcus mutans; S. mutans, in combination with 1.0 milligrams/liter domiphen bromide): 50 milligrams/liter
Minimum Inhibitory Concentration (Streptococcus mutans; S. mutans, in combination with 2 miligrams/liter 1-0-dodecyl-rac-glycerol): 100 miligrams/liter
Minimum Inhibitory Concentration (Streptococcus mutans; S. mutans, in combination with 6 miligrams/liter 1-0-dodecyl-rac-glycerol): 4 miligrams/liter
Minimum Inhibitory Concentration (Streptococcus mutans; S. mutans, in combination with 10 milligrams/liter amyl-m-cresol (row with 50 morpholinoamino alcohol HCl)): 50 milligrams/liter
Minimum Inhibitory Concentration (Streptococcus mutans; S. mutans, in combination with 10 milligrams/liter amyl-m-cresol (row with 100 morpholinoamino alcohol HCl)): 100 milligrams/liter
Minimum Inhibitory Concentration (Streptococcus mutans; S. mutans, in combination with 50 milligrams/liter 2, 4-dichloro-alcohol (row with 50 morpholinoamino alcohol HCl)): 50 milligrams/liter
Minimum Inhibitory Concentration (Streptococcus mutans; S. mutans, in combination with 50 milligrams/liter 2, 4-dichloro-alcohol (row with 100 morpholinoamino alcohol HCl)): 100 milligrams/liter
Minimum Inhibitory Concentration (Streptococcus mutans; S. mutans, in the absence of the dodecyl glycerol): 200 milligrams per liter

CCCCC(CC)CN1CN(CC(CC)CCCC)CC(C)(N)C1 (stereo not drawn) [hexitidine, hexetidine, reference compound]
Minimum Inhibitory Concentration [1, 10]: 1.0 milligrams/liter
Minimum Inhibitory Concentration ([1]; B. melaninogenicus, in combination with 50 milligrams/liter morpholinoamino alcohol HCl, Table X): 0.25 milligrams/liter
Minimum Inhibitory Concentration ([1]; B. melaninogenicus, in combination with 100 milligrams/liter morpholinoamino alcohol HCl, Table X): 0.125 milligrams/liter
Minimum Inhibitory Concentration (Streptococcus mutans; [11]): 1.0 milligrams/liter
Minimum Inhibitory Concentration (Streptococcus mutans; S. mutans, in combination with 50 milligrams/liter morpholinoamino alcohol HCl, Table X): 0.25 milligrams/liter
Minimum Inhibitory Concentration (Streptococcus mutans; S. mutans, in combination with 100 milligrams/liter morpholinoamino alcohol HCl, Table X): 0.25 milligrams/liter

— EP0510151B1, “IMPROVED ANTI-PLAQUE COMPOSITIONS COMPRISING A COMBINATION OF MORPHOLINOAMINO ALCOHOL AND ANTI-MICROBIAL AGENT” (Pharmacia AB, priority 1990, dated 1992)
